# Reference: patent publication US5095013A, “2-(2-vinylpyrrolidinylthio)carbapenem derivatives” (Banyu Pharmaceutical Co., Ltd., priority 1989, dated 1992)
# Like-named read-outs stand apart in the source and are kept apart here.
# Legend:
# E. cloacae Nek39 = test: in vitro antibacterial activity, agar plate dilution method (MIC); assay type: cell-based; conditions: Enterobacter cloacae, read-out: Minimum inhibitory concentration (MIC)
# Procedure: (§1) One platinum loopful of each test microorganism incubated overnight in Mueller Hinton broth, was inoculated to Mueller Hinton agar (inoculum size: 10^6 CFU/ml). Such culture media contained antibacterial agents in various concentrations. After incubation at 37° C. for 16 hours, the minimum inhibitory concentrations (MIC: μg/ml) were measured.
# S. aureus MB4970 = test: as above; assay type: cell-based; conditions: Staphylococcus aureus, read-out: Minimum inhibitory concentration (MIC)
# Procedure: as §1
# Ps. aeruginosa MB5000 = test: as above; assay type: cell-based; conditions: Pseudomonas aeruginosa, read-out: Minimum inhibitory concentration (MIC)
# Procedure: as §1
# [1] = system: renal dehydropeptidase I (DHP-I); assay type: in vitro ADME
# Description: The DHP-I susceptivity was quantitatively analyzed by the method by Kropp et al., Antimicrob., Agents Chemother., vol. 22, p. 62-70 (1982), whereby the smaller the numerical value representing the ratio to imipenem (=1.0), the higher the stability.
# [2] = in vivo; cited from earlier work
# [3] = system: gram positive bacteria and gram negative bacteria; conditions: cited prior art; cited from earlier work
# DHP-I [4] = conditions: cited from earlier work
# [5] = cited from earlier work
# [6] = system: methicillin resistant Staphylococcus aureus; conditions: prior art compounds; cited from earlier work
# [7] = due to the decomposition products; cited from earlier work
# DHP-I [8] = conditions: cited from earlier work; remark: listed apart in the source
# β-lactamase = conditions: cited from earlier work
# [9] = system: imipenem resistant Pseudomonas aeruginosa; conditions: cited from earlier work
# [10] = system: highly methicillin resistant Staphylococcus aureus resistant to imipenem; conditions: cited from earlier work
smiles,measurement,setting,value
"C[C@@H](O)[C@H]1C(=O)N2C(C(=O)O)=C(S[C@@H]3CN[C@H](/C=C4\CCNC4=O)C3)[C@H](C)[C@H]12 [Example 12, (1R,5S,6S)-6-[(R)-1-Hydroxyethyl]-1-methyl-2-[(2S,4S)-2[(E)-(2-oxopyrrolidin-3-ylidene)methyl]pyrrolidin-4-ylthio]-1-carbapen-2-em-3-carboxylic acid]",MIC,"E. cloacae Nek39; E. cloacae Nek39, Mueller Hinton agar, inoculum 10^6 CFU/ml, 37° C., 16 hours",0.025 µg/mL
same,MIC,"S. aureus MB4970; S. aureus MB4970, Mueller Hinton agar, inoculum 10^6 CFU/ml, 37° C., 16 hours",0.025 µg/mL
same,MIC,"Ps. aeruginosa MB5000; Ps. aeruginosa MB5000, Mueller Hinton agar, inoculum 10^6 CFU/ml, 37° C., 16 hours",0.39 µg/mL
same,DHP-I susceptivity,[1],0.04
C[C@@H](O)[C@H]1C(=O)N2C(C(=O)O)=C(SCCN)C[C@H]12 [thienamycin],recovery rate in the urine,[2],low
same,antibacterial activities (in words),[3],strong antibacterial activities over a wide range against gram positive bacteria and gram negative bacteria
same,decomposition by DHP-I (in words),"DHP-I [4]; renal dehydropeptidase I, in vivo",likely to be decomposed by a certain enzyme in vivo such as renal dehydropeptidase I
same,chemical stability (in words),[5]; cited prior art,chemically unstable
C[C@@H](O)[C@H]1C(=O)N2C(C(=O)O)=C(S[C@@H]3CN[C@H](C(=O)N(C)C)C3)[C@H](C)[C@H]12 [meropenem],stability against DHP-I (in words),DHP-I [4]; prior art compounds,substantially improved
same,antibacterial activity against highly methicillin resistant Staphylococcus aureus (in words),[6],not adequate
"C[C@@H](O)[C@H]1C(=O)N2C(C(=O)O)=C(SCCN=CN)C[C@H]12 [Imipenem, imipenem]",toxicity against the kidney,[7],presents toxicity against the kidney due to the decomposition products
same,antibacterial activities (in words),[3],antibacterial activities of an equal or higher level than thienamycin against various types of bacteria
same,decomposition by DHP-I in the human kidney,DHP-I [8],likely to be decomposed by DHP-I in the human kidney
same,β-lactamase resistance,β-lactamase,has β-lactamase resistance
same,stability in the solid form or in an aqueous solution,[5]; compared with thienamycin,remarkably improved over thienamycin
same,treating effect (in words),[9],does not show adequate treating effects
same,DHP-I susceptivity,[1],1.0
same,treating effect (in words),[10],does not show adequate treating effects
C[C@@H](O)[C@H]1C(=O)N2C(C(=O)[O-])=C(S[C@@H]3CN[C@H](/C=C/C(N)=O)C3)[C@H](C)[C@H]12.[K+],MIC,"E. cloacae Nek39; NEK39, 16 h",0.025 µg/mL
same,MIC,"S. aureus MB4970; MB4970, 16 h",0.025 µg/mL
same,MIC,"Ps. aeruginosa MB5000; MB5000, 16 h",0.39 µg/mL
same,DHP-I susceptivity,[1],0.2
